From ChEMBL document CHEMBL4699448, “Garcinoic Acids and a Benzophenone Derivative from the Seeds of Garcinia kola and Their Antibacterial Activities against Oral Bacterial Pathogenic Organisms” (2020)
≈ marks a conversion by molar mass, not a printed value.

What was measured:
Type in all cases: functional
[1] = system: Porphyromonas gingivalis; experiment: Bactericidal activity against Porphyromonas gingivalis ATCC 33277 assessed as reduction in bacterial growth incubated for 48 hrs by INT dye based broth dilution method
[2] = system: Streptococcus sobrinus; experiment: Antibacterial activity against Streptococcus sobrinus 6715 assessed as reduction in bacterial growth incubated for 24 hrs by INT dye based broth dilution method
[3] = system: Streptococcus sobrinus; experiment: Bactericidal activity against Streptococcus sobrinus 6715 assessed as reduction in bacterial growth incubated for 48 hrs by INT dye based broth dilution method
[4] = system: Porphyromonas gingivalis; experiment: Antibacterial activity against Porphyromonas gingivalis ATCC 33277 assessed as reduction in bacterial growth incubated for 24 hrs by INT dye based broth dilution method

Row | MIC [2] [µM] | MIC [4] [µM] | Structure (SMILES) | MBC [1] [µM] | MBC [3] [µM]
1 | 250 (≈ 136 µg/mL) | 250 (≈ 136 µg/mL) | O=C1C[C@@H](c2ccc(O)cc2)Oc2c1c(O)cc(O)c2[C@H]1C(=O)c2c(O)cc(O)cc2O[C@@H]1c1ccc(O)cc1 | > 1000 | 500 (≈ 271 µg/mL)
2 | 250 (≈ 144 µg/mL) | > 1000 | O=C1c2c(O)cc(O)cc2O[C@H](c2ccc(O)cc2)[C@H]1c1c(O)cc(O)c2c1O[C@H](c1ccc(O)c(O)c1)[C@@H](O)C2=O | > 1000 | 1000 (≈ 574 µg/mL)
3 | > 1000 | > 1000 | C/C(=C\CC/C(C)=C/CC[C@]1(C)CCc2cc(Oc3c(O)c(C)c(C)c4c3CC[C@@](C)(CC/C=C(\C)CC/C=C(\C)CC/C=C(\C)C(=O)O)O4)cc(C)c2O1)CC/C=C(\C)C(=O)O | > 1000 | > 1000
4 | > 1000 | > 1000 | C/C(=C\CC/C(C)=C/CC[C@]1(C)CCc2cc(Oc3c(O)cc(C)c4c3CC[C@@](C)(CC/C=C(\C)CC/C=C(\C)CC/C=C(\C)C(=O)O)O4)cc(C)c2O1)CC/C=C(\C)C(=O)O | > 1000 | > 1000
5 | 250 (≈ 147 µg/mL) | > 1000 | COc1ccc([C@H]2Oc3c(c(O)cc(O)c3[C@H]3C(=O)c4c(O)cc(O)cc4O[C@@H]3c3ccc(O)cc3)C(=O)[C@@H]2O)cc1O | > 1000 | > 1000
6 | 500 (≈ 286 µg/mL) | 125 (≈ 71.6 µg/mL) | COc1ccc([C@@H]2CC(=O)c3c(O)cc(O)c([C@H]4C(=O)c5c(O)cc(O)cc5O[C@@H]4c4ccc(O)cc4)c3O2)cc1O | > 1000 | > 1000
7 | > 1000 | > 1000 | C/C(=C\CC/C(C)=C/CC[C@]1(C)CCc2c(c(C)cc(O)c2-c2c(O)cc(C)c3c2CC[C@@](C)(CC/C=C(\C)CC/C=C(\C)CC/C=C(\C)C(=O)O)O3)O1)CC/C=C(\C)C(=O)O | > 1000 | > 1000
8 | 2 (≈ 1.01 µg/mL) | 15.6 (≈ 7.89 µg/mL) | N=C(NCCCCCCNC(=N)NC(=N)Nc1ccc(Cl)cc1)NC(=N)Nc1ccc(Cl)cc1 [CHLORHEXIDINE] | 31.3 (≈ 15.8 µg/mL) | 2 (≈ 1.01 µg/mL)
9 | 15.6 (≈ 5.47 µg/mL) | 62.5 (≈ 21.9 µg/mL) | CC(C)=CCC/C(C)=C/Cc1c(O)cc(C(=O)c2ccccc2)cc1O | > 1000 | 31.3 (≈ 11 µg/mL)
10 | 250 (≈ 140 µg/mL) | > 1000 | O=C1c2c(O)cc(O)cc2O[C@H](c2ccc(O)cc2)[C@H]1c1c(O)cc(O)c2c1O[C@H](c1ccc(O)cc1)[C@@H](O)C2=O | > 1000 | 1000 (≈ 558 µg/mL)
11 | > 1000 | > 1000 | CC1(C)CC[C@]2(C)CC[C@]3(C)[C@H]4CC=C5[C@@H](CC[C@H](O)C5(C)C)[C@]4(C)CC[C@@]3(C)[C@@H]2C1 [GLUTINOL] | > 1000 | > 1000
12 | 31.3 (≈ 13.4 µg/mL) | 31.3 (≈ 13.4 µg/mL) | C/C(=C\CC/C(C)=C/CC[C@]1(C)CCc2cc(O)cc(C)c2O1)CC/C=C(\C)C(=O)O | 250 (≈ 107 µg/mL) | 62.5 (≈ 26.7 µg/mL)
